According to US7160914B2, “Compounds that exhibit specific molecular recognition of mixed nucleic acid sequences and bind in the DNA minor groove as a dimer” (The University of North Carolina at Chapel Hill, priority 1999, dated 2007):

Legend:
[1] = tested on: 265 bp EcoRI-PvuII restriction fragment from plasmid pBS; assay: Quantitative DNase I footprinting; format: binding; conditions: for footprint in the 90–100 base region (GC-rich): 265 mer pBS fragment, DNase I; for binding to sites containing GC base pairs, such as ATGA, ACGA, and ATGT: several restriction fragments
Description: In order to characterize the DNA recognition properties of a series of analogs of furamidine (shown in FIG. 1), quantitative DNAaseI footprinting studies were conducted using of a number of derivatives with several different DNA sequences. Plasmid DNA restriction fragments were prepared and DNaseI footprinting experiments were conducted as described in C. Bailly, et al., Biochemistry 35, 1150 (1996) and C. Bailly et al., Anti Cancer Drug Design (in press, 1999).
FIG. 2. illustrates the results of a quantitative DNase I footprinting titration experiment with the compound DB293 on a 265 bp DNA fragment as described herein. The EcoRI-PvuII restriction fragment from plasmid pBS was 3′-end labeled at the EcoRI site with [α-^32P]dATP in the presence of AMV reverse transcriptase. […] Drug concentrations are (lanes 1–11) 0, 0.3, 0.6, 0.9, 1.2, 1.5, 1.8, 2.1, 2.4, 2.7, 3.0 μM for DB 293 and (lanes 12–15) 0, 1, 2 and 5 μM for DB270. Tracks labeled ‘G’ represent dimethylsulphate-piperidine markers specific for guanines. The track labeled DNA contained no drug and no enzyme. Numbers at the right side of the gel refer to the numbering scheme of the fragment. The rectangles on the left side refer to the positions of (open box) an AT-rich and (filled box) a GC-rich binding site for DB293. FIG. 2B is a graphical illustration of footprinting plots for the binding of DB293 to (open circles) the AT site 5′-AATTAA and (filled squares) the GC-rich site 5′-ACCATG. The relative band intensity R corresponds to the ratio Ic/Io where Ic is the intensity of the band at the ligand concentration c and Io is the intensity of the same band in the absence of DB293. The differential cleavage plots shown in FIG. 2C compare the susceptibility of the DNA to cutting by DNase I in the presence of (filled circles) 5 μM DB270 or (open squares) 1.5 μM DB293. Deviation of points towards the lettered sequence (negative values) corresponds to a ligand-protected site and deviation away (positive values) represents enhanced cleavage. The vertical scale is in units of ln(fa)–l(fc), where fa is the fractional cleavage at any bond in the presence of the drug and fc is the fractional cleavage of the same bond in the control. […] The rectangles below the sequence show the positions of (open box) the AT binding site and (filled box) the GC-rich site.

hairpin duplex oligo2-1 = assay: Thermal melting (Tm) of hairpin oligo2-1; format: binding; conditions: 1:1 and 2:1 ratios, single transitions
oligo2-1 hairpin duplex = tested on: oligo2-1 hairpin duplex
Description: (§1) To pursue the comparative quantitative analysis of these compounds with DNA in more detail by using surface plasmon resonance, 5′-biotin labeled analogs of oligo2-1 and 2-2 were immobilized on a BIAcore four-channel streptavidine-coated sensor chip as follows: Immobilization of DNA and surface plasmon resonance (SPR) binding studies: 5′-biotin labeled hairpins were purchased with HPLC purification (Midland Co). […] Steady state analysis was performed with multiple injections f different concentrations of each compound over the SA surface at a flow rate of 20 μl/min, at 25° C.
(§2) Oligo1 was immobilized as a control sequence and one flow cell was left as an unmodified reference. […] The free compound is fixed by the concentration in the flow solution.

[2] = tested on: hairpin duplex oligo2 (93–104 base sequence region of the 265 mer pBS restriction fragment); assay: Thermal melting (Tm) of hairpin oligo2; format: binding; conditions: oligo2 on titration with compound; 0.01 M MES, 0.001M EDTA
Description: In order to investigate the complexes of these compounds in more detail with GC rich sequences, a hairpin duplex model containing the 93–104 base sequence region from the 265 mer pBS restriction fragment was synthesized and is illustrated as oligo2 in FIG. 1. Oligo1 (also shown in FIG. 1) with the AATT sequence that has been used in the analysis of a large number of minor-groove agents provides a reference.
Thermal melting experiments were conducted with a Cary 4 spectrophotometer interfaced to a microcomputer. A thermistor fixed into a reference cuvette was used to monitor the temperature. The oligomers were added to 1 mL of buffer (0.01 M MES and 0.001M EDTA) in 1 cm path length reduced volume quartz cells, and the concentration was determined by measuring the absorbance at 260 nm. Experiments were generally conducted at a concentration of 2×10^−6 M for hairpin oligo2, and 3×10^−6 M for hairpin oligo2-1. Tm experiments for the complexes were conducted as a function of ratio.

oligo2-2 hairpin duplex = conditions: SPR, two site model
Description: as §1, §2

| SMILES | footprint in the 90–100 base region (GC-rich) [1] | binding to sites containing GC base pairs, such as ATGA, ACGA, and ATGT [1] | melting temperatures of complexes with oligo2-1 (hairpin duplex oligo2-1) | binding to oligo2-1 relative to binding to oligo1 (oligo2-1 hairpin duplex; SPR) | C50 (drug concentration required for half-maximal footprinting) at the ATGA site versus the neighboring ATTA site ([1]; ATGA site compared with ATTA site) | increase in Tm [2] | K2 relative to K1 (times larger) (oligo2-1 hairpin duplex; also relative to binding of DB270) | macroscopic binding constant K1 (initial binding) (oligo2-1 hairpin duplex; oligo2-1, two site model) | macroscopic binding constant K2 (second site after the first site is filled) (oligo2-1 hairpin duplex; oligo2-1, two site model) | binding to oligo2-2 compared with oligo2-1 (oligo2-2 hairpin duplex) |
| --- | --- | --- | --- | --- | --- | --- | --- | --- | --- | --- |
| N=C(N)c1ccc2nc(-c3ccc(-c4nc5ccc(C(=N)N)cc5[nH]4)o3)[nH]c2c1 [DB270, reference compound] | negligible footprints | not and do not bind strongly or footprint | below the DB293 value | at least a factor of ten weaker |  |  |  |  |  |  |
| N=C(N)c1ccc(-c2ccc(-c3nc4ccc(C(=N)N)cc4[nH]3)o2)cc1 [DB293] | very strong footprint | strongly binds |  |  | significantly lower | ≤ 30 °C | over 25 times | 2.8×10^6 | 7.3×10^7 | Very similar results |
